# Laboratory results taken from US20240398831A1, “COMPOSITIONS COMPRISING SMALL MOLECULE REGULATORS OF TUMOR IMMUNITY AND METHODS OF USING SAME” (Duke University, priority 2021, published 2024).
# Key:
# B16F10 cells = assay: Proliferation assay; format: cell-based, mouse; settings: E2 0.01-1 nM, 3 days
# Method: (§1) ERα+ MCF7 cells served as a positive control. Cells were treated as either mock transfected or transfected with scrambled control or three different siRNA targeting Esr1. […] Esr1 was first normalized to Rplp0 and then Esr1 knockdown samples were normalized to a non-targeting control. RNA was collected from both cell lines after 48 hr of siRNA transfection. […] Mouse ovary served as a positive control. […] ERα+MCF7 cells served as a positive control (FIG. 5E, left). […] Data are expressed as individual data points and represented as mean±S.E.M. Significance was calculated by Student's t test or two-way ANOVA (FIGS. 5E-5F), followed by Bonferroni's multiple correction (**p<0.0001).
# Proliferation assay. For proliferation assays, B16F10 cells were plated in DMEM media (without phenol red) supplemented with 10% charcoal-stripped FBS. Cells were plated at a concentration of 1000 cells/well of a 96-well plate for 2 days in 200 μL of media. […] Cells were collected every 24 hr by discarding the media from the plates. Plates were frozen at −80° C. […] Cell numbers were determined by the addition of 100 μL of (conc.) DNA dye […] dye (Sigma Cat #94403) in TNE buffer (10 mM Tris, 2M NaCl and 1 mM EDTA) and the fluorescence was read at an excitation of 360 nm and an emission at 465 nm using a microplate reader.
# YuMM5.2 cells = assay: Quantitative PCR of ER target genes in melanoma cells; format: cell-based, mouse; settings: E2 1 nM, 16 hr
# iBP tumors = assay: iBP autochthonous melanoma mouse model (tumor growth, flow cytometry); format: in vivo; settings: E2 vs placebo
# From the text: Mice. C57BL/BJ, LysMCre (B6.129P2-Lyz2^tm1(cre)lfo/J) Pmel (B6.Cg-Thy1^a/Cy Tg(TcraTcrb)8Rest/J) mice were from Jackson Laboratories (Bar Harbor, ME). Age matched mice were used for all the studies. LysMCre mice were bred to Esr1^f/f mice to generate Esr1^f/f; LysMCre and littermate control LysMCre and Esr1^f/f mice. iBP (Braf^V600E/WT, Pten^f/fmTyrCreERT2) mice were generated by crossing breeders Braf^WT/WT/Pten^f/f, mTyrCreERT2 mice to BRAF^V600E, Pten^f/f mice. The mice were housed in secure animal facility cages in 12 hour light:dark cycles at temperature around 25° C. and 70% humidity. Mice had access to ad-libitum food and water. NSG (NOD.Cg-Prkd^scid Il2rg^tm1Wjl/SzJ) mice were from the Division of Laboratory Animal Resources (Duke University). The NSG animals were fed with a GL3 diet and were kept in pathogen free conditions.
# Tumor models and cells. The mouse B16F10 and Yumm5.2 cell lines were purchased from American Type Culture Collection (ATCC, Manassas, VA). The mouse melanoma cell line BPD6 was established from iBP as described elsewhere (Zhao et al., Immunity 2018, 48, 147-160). B16F10 and BPD6 cells were maintained in Dulbecco's Modified Eagle's Medium (DMEM) supplemented with 8% fetal bovine serum (FBS), 0.1 mM non-essential amino acids (NEAA) and 1 mM sodium pyruvate. YuMM5.2 cells were maintained in DMEM/F12 media supplemented with 10% FBS. The cells were replated 3 times/week at a confluency of 1:10 and were kept in a 37° C. incubator at 5% CO2. For subcutaneous tumor models B16F10 (5×10^4 or 1×10^5), YuMM5.2 (5×10^5), and BPD6 (5×10^5) cells were injected into the right flank of the mice. For iBP mice, tumors were induced with a single intradermal dose of 4-hydroxytamoxifen in DMSO (150 μg/mouse). Tumors were measured thrice weekly using an electronic caliper. Tumor volumes were calculated by the formula V=L×(W×W)/2. For iBP mouse tumors, volumes were calculated by the formula V=L×B×H. For tumor growth rate studies mice were euthanized when the tumors reached a maximum size of 2000 mm^3.
# Ovarlectomy and subcutaneous pellet Insertion. Ovariectomy was performed as previously described (Nelson et al., Science 2013, 342, 1094-1098). Eight days prior to tumor inoculation, 7 weeks old C57BL/6J or 5 weeks old (iBP) female mice were subjected to ovariectomy or sham surgery. Mice were anesthetized in an inhalation chamber (2% Isoflurane) and maintained in half the dose of isoflurane (1%) via nose cone throughout the surgical process. Prior to surgery, mice were administered a 5 mg/kg dose of carprofen subcutaneously. The area below the ribs was shaved with an electronic razor and the skin was sterilized by rubbing with betadine and alcohol (3× alternating). A horizontal incision was made through the skin above the ovary fat pad, followed by a vertical incision through the abdominal muscle wall. The ovary was externalized and removed using a cauterizing scissors (or returned if sham). Fat pad was replaced, and muscle walls were opposed and sutured (1-2 stitches). Following suturing, 1 drop of bupivacaine (0.25%) was added on top of the incision site. The skin was opposed, and a wound clip was placed on the incision site. This was repeated for the other ovary. The mouse was then removed from anesthesia and kept in a clean cage and monitored until conscious. The mice were monitored for recovery for 10 days.
# Single cell isolation from tumors. Tumors were isolated, minced on a petri dish in media (DMEM+5% FBS), and then enzymatically digested by the addition of 100 μg/mL DNase I (D5025-150KU, Sigma-Aldrich) and 1 mg/mL collagenase (Collagenase A, Cat #10103586001, Sigma-Aldrich) for 30 mins-45 mins. For iBP models, isolated tumors were sliced into large chunks and subjected to mechanical digestion in a gentleMACS Dissociator for 30 seconds twice. […]
# [1] = Uterine wet weights in ovariectomized mice; format: in vivo, mouse; settings: E2 pellets 0.01 mg/60 days vs placebo
# Method: as §1
# Ovarlectomy and subcutaneous pellet Insertion. Ovariectomy was performed as previously described (Nelson et al., Science 2013, 342, 1094-1098). Eight days prior to tumor inoculation, 7 weeks old C57BL/6J or 5 weeks old (iBP) female mice were subjected to ovariectomy or sham surgery. Mice were anesthetized in an inhalation chamber (2% Isoflurane) and maintained in half the dose of isoflurane (1%) via nose cone throughout the surgical process. Prior to surgery, mice were administered a 5 mg/kg dose of carprofen subcutaneously. […] The mouse was then removed from anesthesia and kept in a clean cage and monitored until conscious. The mice were monitored for recovery for 10 days.
substance,measurement,setting,value
17β-estradiol [E2],proliferation,B16F10 cells,nor did it support proliferation
same,expression of classical ER target genes (Pgr and Cxc112),YuMM5.2 cells,did not lead to changes
same,tumor growth,iBP tumors; ovariectomized iBP mice,accelerated tumor growth
same,"CD3+ T cell population, tumor-infiltrating",iBP tumors; flow cytometry,overall decrease
same,infiltration of immune cells (CD45+),iBP tumors; flow cytometry,not impacted by treatment
same,number of monocytes,iBP tumors; flow cytometry,trend was observed towards an increase
same,ratio of intratumoral M1 (MHCII^hi CD206−) to M2 (MHCII^lo CD206+/hi) macrophages,iBP tumors; flow cytometry,decreases
same,total number of F480+ macrophages,iBP tumors; flow cytometry,remaining unchanged
same,"CD4+ T cells, tumor-infiltrating","iBP tumors; flow cytometry, FIGS. 16B-16C show B16F10 and YuMM5.2",no significant changes
same,uterine wet weights,[1],increase
